Results on 23 compounds are retold here after patent US8536209B2, “Aminotriazole derivatives as ALX agonists” (Actelion Pharmaceuticals Ltd., priority 2007, dated 2013).

For the assay, the target named is T1, recombinant human ALX receptor (Homo sapiens, UniProt P25090).
T1 construct: expressed in transfected cells; host or cells: HEK293 (HEK293-hALXR-Gα16)
T1 sequence (P25090 1-351): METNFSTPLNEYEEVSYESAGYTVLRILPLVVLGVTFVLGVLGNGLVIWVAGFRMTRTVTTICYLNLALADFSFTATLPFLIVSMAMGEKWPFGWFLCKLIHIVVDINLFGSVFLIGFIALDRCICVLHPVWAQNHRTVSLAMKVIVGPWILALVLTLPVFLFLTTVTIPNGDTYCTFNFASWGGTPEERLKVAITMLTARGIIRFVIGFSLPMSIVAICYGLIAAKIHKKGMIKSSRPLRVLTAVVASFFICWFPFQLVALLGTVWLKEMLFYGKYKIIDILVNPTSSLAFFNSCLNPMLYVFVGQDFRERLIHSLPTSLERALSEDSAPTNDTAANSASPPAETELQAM
The experiment in a line: Intracellular calcium measurements (FLIPR), ALX receptor agonistic activity. Format: cell-based. The following applies: HEK293-hALXR-Gα16 cells, normalized to WKYMVm 10 nM. As to the method: The ALX receptor agonistic activity of the compounds of formula (I) is determined in accordance with the following experimental method.
Intracellular Calcium Measurements:
Cells expressing recombinant human ALX receptor and the G-protein Gα16 (HEK293-hALXR-Gα16) were grown to 80% confluency in Growing Medium (GM). Cells were detached from culture dishes with a cell dissociation buffer (Invitrogen, 13151-014), and collected by centrifugation at 1,000 rpm at RT for 5 min in Assay Buffer (AB) (equal parts of Hank's BSS (Gibco, 14065-049) and DMEM without Phemol Red (Gibco, 11880-028)). After 60 min incubation at 37° C. under 5% CO2 in AB supplemented with 1 μM Fluo-4 (AM) (TEFLABS.COM, 0152), 0.04% (v/v) Pluronic F-127 (Molecular Probes, P6866), and 20 mM HEPES (Gibco, 15630-056), the cells were washed and resuspended in AB. They were then seeded onto 384-well FLIPR assay plates (Greiner, 781091) at 50′000 cells in 70 μl per well and sedimented by centrifugation at 1′000 rpm for 1 min. Stock solutions of test compounds were made up at a concentration of 10 mM in DMSO, and serially diluted in AB to concentrations required for activation dose response curves. WKYMVm (Phoenix Peptides) was used as a reference agonist. A FLIPR^384 instrument (Molecular Devices) was operated according to the manufacturer's standard instructions, adding 4 μl of test compound dissolved at 10 mM in DMSO and diluted prior to the experiment in assay buffer to obtain the desired final concentration. Changes in fluorescence were monitored before and after the addition of test compounds at lex=488 nm and lem=540 nm. Emission peak values above base level after compounds addition were exported after base line subtraction. Values were normalized to high-level control (WKYMVm compound, 10 nM final concentration) after subtraction of the base line value (AB addition). The program XLlfit 3.0 (IDBS) was used to fit the data to a single site dose response curve of the equation (A+((B−A)/(1+((C/x)^D)))) and to calculate the EC50 values.

Structures are written as SMILES.

For `CC(=O)c1nc(Cn2ncc(NC(=O)OCc3ccccc3Cl)n2)co1` [Example 104, [2-(2-Acetyl-oxazol-4-ylmethyl)-2H-[1,2,3]triazol-4-yl]-carbamic acid 2-chloro-benzyl ester], the EC50 is 1.4 nM. Regarding `CC(=O)c1coc(Cn2ncc(NC(=O)c3ncoc3-c3ccccc3)n2)n1` [Example 91, 5-Phenyl-oxazole-4-carboxylic acid [2-(4-acetyl-oxazol-2-ylmethyl)-2H-[1,2,3]triazol-4-yl]-amide], the EC50 was 0.7 nM. On to `CC(=O)c1ccnc(Cn2ncc(NC(=O)OCc3ccccc3Cl)n2)c1` [Example 41, [2-(4-Acetyl-pyridin-2-ylmethyl)-2H-[1,2,3]triazol-4-yl]-carbamic acid 2-chloro-benzyl ester], for which the EC50 amounted to 21 nM. Turning to `CC(=O)c1ccc(Cn2ncc(NC(=O)c3nc(C)oc3-c3cccc(C(F)(F)F)c3)n2)o1` [Example 26, 2-Methyl-5-(3-trifluoromethyl-phenyl)-oxazole-4-carboxylic acid [2-(5-acetyl-furan-2-ylmethyl)-2H-[1,2,3]triazol-4-yl]-amide], the EC50 amounted to 2 nM. The same measure for `COCCc1nc(C(=O)Nc2cnn(Cc3ccc(C(C)=O)o3)n2)c(-c2ccccc2)o1` [Example 93, 2-(2-Methoxy-ethyl)-5-phenyl-oxazole-4-carboxylic acid [2-(5-acetyl-furan-2-ylmethyl)-2H-[1,2,3]triazol-4-yl]-amide]: 5.2 nM; for `CC(=O)c1ccc(Cn2ncc(NC(=O)/C=C/c3cccc(OC(F)(F)F)c3)n2)o1` [Example 8, (E)-N-[2-(5-Acetyl-furan-2-ylmethyl)-2H-[1,2,3]triazol-4-yl]-3-(3-trifluoromethoxy-phenyl)-acrylamide]: 1.2 nM. The same measure for `COCCc1cccc(-c2ocnc2C(=O)Nc2cnn(Cc3ccc(C(C)=O)o3)n2)c1` [Example 42, 5-[3-(2-Methoxy-ethyl)-phenyl]-oxazole-4-carboxylic acid [2-(5-acetyl-furan-2-ylmethyl)-2H-[1,2,3]triazol-4-yl]-amide]: 2.1 nM; for `CC(=O)c1ccc(Cn2ncc(NC(=O)c3nc(C)sc3-c3cccc(C)c3)n2)o1` [Example 50, 2-Methyl-5-m-tolyl-thiazole-4-carboxylic acid [2-(5-acetyl-furan-2-ylmethyl)-2H-[1,2,3]triazol-4-yl]-amide]: 98 nM. The same measure for `COc1cc(-c2ocnc2C(=O)Nc2cnn(Cc3ccc(C(C)=O)o3)n2)ccc1C` [Example 21, 5-(3-Methoxy-4-methyl-phenyl)-oxazole-4-carboxylic acid [2-(5-acetyl-furan-2-ylmethyl)-2H-[1,2,3]triazol-4-yl]-amide]: 53 nM; for `CC(=O)c1ccc(Cn2ncc(NC(=O)c3ncoc3-c3cccc(N(C)C)c3)n2)o1` [Example 38, 5-(3-Dimethylamino-phenyl)-oxazole-4-carboxylic acid [2-(5-acetyl-furan-2-ylmethyl)-2H-[1,2,3]triazol-4-yl]-amide]: 1.9 nM; for `CC(=O)c1ccc(Cn2ncc(NC(=O)c3ncoc3-c3ccccc3)n2)o1` [Example 1, 5-Phenyl-oxazole-4-carboxylic acid [2-(5-acetyl-furan-2-ylmethyl)-2H-[1,2,3]triazol-4-yl]-amide]: 1.8 nM.

On to `CC(=O)c1ncc(Cn2ncc(NC(=O)c3nc(C)oc3-c3cccc(F)c3)n2)o1` [Example 99, 5-(3-Fluoro-phenyl)-2-methyl-oxazole-4-carboxylic acid [2-(2-acetyl-oxazol-5-ylmethyl)-2H-[1,2,3]triazol-4-yl]-amide], for which the EC50 was 8.1 nM. The same measure for `CC(=O)c1cccc(Cn2ncc(NC(=O)c3ncoc3-c3ccccc3)n2)n1` [Example 43, 5-Phenyl-oxazole-4-carboxylic acid [2-(6-acetyl-pyridin-2-ylmethyl)-2H-[1,2,3]triazol-4-yl]-amide]: 203 nM; for `CC(=O)c1cnc(Cn2ncc(NC(=O)OCc3ccccc3Cl)n2)s1` [Example 71, [2-(5-Acetyl-thiazol-2-ylmethyl)-2H-[1,2,3]triazol-4-yl]-carbamic acid 2-chloro-benzyl ester]: 23 nM. The same measure for `CC(=O)CCCCn1ncc(NC(=O)c2ncoc2-c2ccccc2)n1` [Example 5, 5-Phenyl-oxazole-4-carboxylic acid [2-(5-oxo-hexyl)-2H-[1,2,3]triazol-4-yl]-amide]: 1.6 nM; for `CC(=O)c1csc(Cn2ncc(NC(=O)OCc3ccccc3Cl)n2)n1` [Example 40, [2-(4-Acetyl-thiazol-2-ylmethyl)-2H-[1,2,3]triazol-4-yl]-carbamic acid 2-chloro-benzyl ester]: 1.3 nM.

Regarding `CC(=O)c1cccc(Cn2ncc(NC(=O)OCc3ccccc3Cl)n2)c1` [Example 35, [2-(3-Acetyl-benzyl)-2H-[1,2,3]triazol-4-yl]-carbamic acid 2-chloro-benzyl ester], the EC50 was found to be 8.5 nM.

Take `CS(=O)(=O)c1ccc(Cn2ncc(NC(=O)c3ncoc3-c3ccccc3)n2)o1` [Example 37, 5-Phenyl-oxazole-4-carboxylic acid [2-(5-methanesulfonyl-furan-2-ylmethyl)-2H-[1,2,3]triazol-4-yl]-amide]: the EC50 stood at 24 nM.

For the compound `CC(=O)c1ccc(Cn2ncc(NC(=O)c3nc(C4CC4)oc3-c3ccccc3)n2)o1` [Example 30, 2-Cyclopropyl-5-phenyl-oxazole-4-carboxylic acid [2-(5-acetyl-furan-2-ylmethyl)-2H-[1,2,3]triazol-4-yl]-amide], the EC50 came out at 0.8 nM.

On to `CC(=O)c1ccc(Cn2ncc(NC(=O)c3ncoc3-c3cccc(C(F)(F)F)n3)n2)o1` [Example 105, 5-(6-Trifluoromethyl-pyridin-2-yl)-oxazole-4-carboxylic acid [2-(5-acetyl-furan-2-ylmethyl)-2H-[1,2,3]triazol-4-yl]-amide], for which the EC50 came out at 36 nM.

For the compound `CC(=O)c1ccc(Cn2ncc(NC(=O)c3ncoc3-c3ccccc3)n2)s1` [Example 33, 5-Phenyl-oxazole-4-carboxylic acid [2-(5-acetyl-thiophen-2-ylmethyl)-2H-[1,2,3]triazol-4-yl]-amide], the EC50 came to 2.8 nM. The figure for `CC(F)(F)CCCCn1ncc(NC(=O)c2ncoc2-c2ccccc2)n1` [Example 36, 5-Phenyl-oxazole-4-carboxylic acid [2-(5,5-difluoro-hexyl)-2H-[1,2,3]triazol-4-yl]-amide] is 4.9 nM; for `CC(=O)c1cc(Cn2ncc(NC(=O)c3ncoc3-c3ccccc3)n2)cs1` [Example 49, 5-Phenyl-oxazole-4-carboxylic acid [2-(5-acetyl-thiophen-3-ylmethyl)-2H-[1,2,3]triazol-4-yl]-amide] it is 57 nM.
